Data on three compounds can be found in US12129265B2, “Therapeutic agents and uses thereof” (Ankh Life Sciences Limited, priority 2020, dated 2024).

Values after ≈ are worked out from the molar mass of the structure shown. Read-outs that look alike come from different tables or passages of the source.

In one series the test system is DOHH-2 cells. Kind of series: CellTiter-Glo in vitro cell proliferation assay, Example 8. It counts as cell-based, Human. To be noted: Homo sapiens, DOHH-2, Diffuse Large B-Cell Lymphoma. In short, it runs like this:
(§1)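 Seeded cells, pre-cultured for 24 h, are treated with compound from 0.0075 to 100 μM in DMSO for 72 h. The luminometer signal of CellTiter-Glo, developed 60 min at room temperature, indicates proliferation.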
Background: In ATP-based viability assays light output follows the ATP content of the culture.

A further series concerns HCC70 cells. Described as above. Type of series: cell-based, Human. To be noted: Homo sapiens, HCC70, Triple Negative Breast. In short, it runs like this: as §1
The test system of another series is HEC-1a cells. The description is as above. Type of series: cell-based, Human. Particulars: Homo sapiens. In short, it runs like this:
as §1

The subject of the next series is MDA-MB-468 cells. The series is described as above. Type of series: cell-based, Human. To be noted: Homo sapiens, MDA-MB-468, Triple Negative Breast. In short, it runs like this: as §1
The subject of the next series is MIA PaCa-2 cells. The description is as above. Particulars: Homo sapiens, MIA PaCa-2, Pancreatic. Type of series: cell-based, Human. In short, it runs like this:
as §1

In the next series the test system is MM.1s cells. The description is as above. Type of series: cell-based, Human. To be noted: MM1.S. In short, it runs like this:
as §1

A further series relates to SiHA cells. The description is as above. It counts as cell-based, Human. To be noted: Homo sapiens. In short, it runs like this:
as §1

Series [1] relates to Jeko-1 Bortezomib resistant cells. The description is as above. Type of series: cell-based. To be noted: Homo sapiens, Mantle Cell Lymphoma, 72 hours. In short, it runs like this:
as §1

In series [2] the test system is Jeko-1 Lenalidomide resistant cells. Described as above. Type of series: cell-based. To be noted: Homo sapiens, Mantle Cell Lymphoma, 72 hours. In short, it runs like this:
as §1

In a further series the test system is Jeko-1 Parental cells. The description is as above. Type of series: cell-based. To be noted: Homo sapiens, Mantle Cell Lymphoma, 72 hours. In short, it runs like this: as §1
A further series deals with MiaPaCa-2 cells. Kind of series: Cell colony formation assay, Example 16. It counts as cell-based, human. As to the method:
(§2) In this example, the 560 and 562 compounds of Examples 12 and 14, respectively, were tested using cell colony formation assays. 500 viable S2-007 and MiaCaPa-2 cells were plated in six-well dishes and allowed to grow for 24 hours. The cells were then incubated in the presence or absence of the 560 and 562 compounds for 72 hours. The compound-containing media were then removed, and the cells were washed in PBS and incubated for an additional 10 days in complete media. The resultant colonies were then washed in PBS and fixed using 10% formalin for 10 minutes at room temperature, followed by washing with PBS and staining with Crystal Violet. The colonies of the control and compound-supplemented assays were then counted and compared.

For a further series, the system named is S2-007 cells. Kind of series: Cell colony formation assay, Example 16. Type of series: cell-based, human. To be noted: 4 μg and 6 μg, 24, 48, and 72 hours, FIG. 123. On the procedure:
as §2

Series [3] deals with Mia-PaCa2 pancreatic cancer cells. Kind of series: Proliferation assay, Example 10. Type of series: cell-based, human. On the procedure:
(§3) In this Example, pancreatic cancer cells (S2-007 and Mia-PaCa2) were treated with the previously described compound 518B562 at different times and concentrations, followed by generation of proliferation assays using the techniques described above. […] After 72 hours of treatment, the IC50 values of the compound against S2-007 and Mia-PaCa2 cells was determined as 3 μg/mL and 5 μg/mL, respectively.

The subject of series [4] is S2-007 pancreatic cancer cells. Kind of series: Proliferation assay, Example 10. It counts as cell-based, human. On the procedure: as §3
For series [5], the system named is gene expression in S2-007 human pancreatic cancer cells. Kind of series: RNA-Seq clustergram/heat map of cancer stem cell markers, Example 11. Type of series: cell-based. To be noted: 5 micro-g/mL. As to the method: In this Example, a clustergram/heat map of RNA sequences for cancer stem cell (CSC) markers was performed before and after treatment of S2-007 human pancreatic cancer cells with 518B562. This experiment was conducted using a Whole Transcriptome Shotgun Sequence (WTSS), followed by bioinformatics data analysis of CSC markers. An RNA-Seq/heat map was generated to obtain a genome-wide gene expression profile of the pancreatic cancer cells.
One sample of the pancreatic cancer cell line was untreated, while an identical sample was treated with 5 micro-g/mL of 518B562. Comparative RNA sequences were performed on the samples using an Illumina HISeq 2500 sequencer at a 100 bp single read resolution. The sequence readings were mapped to the human genome (assembly GRCh38.re177) using the STAR software (Dobin et al. 2012). Transcript abundance estimates were generated using the Cufflinks software (Trapnell et al. 2010) and differential gene expression estimates were calculated using the Cuffdiff software (Trapnell et al. 2013). RNA-Seq generated around […], of which between 97.2% and 98.3% of the reads mapped to the reference genome.

Series [6] can be described thus: Solubility observation on acid addition. Type of series: physicochemical. Particulars: addition of an acid such as hydrochloric acid to reduce the pH of the product. On the procedure: The 518B562 compound was prepared by mixing together particulate harmaline and vanillin at a weight ratio of about 2:1 (vanillin:harmaline), followed by adding ethanol to a final concentration of the reactions of from about 10-100 mg/mL. This mixture is then allowed to sit for approximately 3 days at 50° C. A bluish solid forms, which is filtered and washed with methanol, and recovered.

[7] abbreviates: Endometrial, 72 hours, read-out: Mean IC50.
[8] abbreviates: MM.IS, Human Myeloma, 72 hours, read-out: Mean IC50.
Where [9] appears, read: Squamous, 72 hours, read-out: Mean IC50.
[10] abbreviates: doses of 1-25 μg/mL, time-dependent, 24-72 hours.

In the case of `COc1ccc2c3c([nH]c2c1)C(CC(CC1=NCCc2c1[nH]c1cc(OC)ccc21)c1ccccc1)=NCC3` [compound 560], the IC50 in the series on DOHH-2 cells (72 hours, read-out: Mean IC50) was determined as 6.39 µM; with HCC70 cells (72 hours, read-out: Mean IC50), 5.94 µM; with HEC-1a cells (setting [7]), 5.1 µM; in the series with MDA-MB-468 cells (72 hours, read-out: Mean IC50), 3.75 µM; in the series on MIA PaCa-2 cells (72 hours, read-out: Mean IC50), 3.38 µM; with MM.1s cells (setting [8]) it was 2.26 µM. For the same compound, the IC50 in the series with SiHA cells (setting [9]) stood at 11.6 µM; in [1] it was 4.08 µM; in [2] it was 5.07 µM; with Jeko-1 Parental cells it was 4.7 µM. The colony formation entry with MiaPaCa-2 cells (3 μg and 5 μg, 24, 48, and 72 hours, FIG. 124) is reported as “significantly disrupted colony formation at both levels of use”; in the series with S2-007 cells, “significantly disrupted colony formation, particularly at the 6 μg level of use”.
Take `COc1ccc2c3c([nH]c2c1)C(CC(CC1=NCCc2c1[nH]c1cc(OC)ccc21)c1ccc(O)c(OC)c1)=NCC3` [compound 562]: the IC50 in the series with DOHH-2 cells (72 hours, read-out: Mean IC50) worked out at 2.42 µM; in the series with HCC70 cells (72 hours, read-out: Mean IC50), 3.45 µM; with HEC-1a cells (setting [7]), 4.75 µM; in the series with MDA-MB-468 cells (72 hours, read-out: Mean IC50), 2.05 µM; with MIA PaCa-2 cells (72 hours, read-out: Mean IC50), 1.81 µM; in the series with MM.1s cells (setting [8]), 1.67 µM. The IC50 with SiHA cells (setting [9]) stood at 5.13 µM; in series [1] it was 4.81 µM; in series [2], 6.19 µM; with Jeko-1 Parental cells it was 4.41 µM; in series [3] (Homo sapiens, MIA PaCa-2, after 72 hours of treatment), 5 µg/mL (≈ 8.89 µM); in [4] (Homo sapiens, Pancreatic cancer cell, after 72 hours of treatment), 3 µg/mL (≈ 5.33 µM). For the same compound, the inhibition of proliferation entry in [3] (setting [10]) and in series [4] (setting [10]) was “significantly inhibited the proliferation” in each case. The “angiogenesis markers [OXTR, SYCP2, CRHR1, SPEG]” value in series [5] is “down-regulated”. Besides, the “anti-apoptotic markers [TUG1, FABP1, PI3, DOKS]” value in [5] was “down-regulated”. In [5], the “anti-proliferative markers [NRP1, ATF2A, CYP1b1, ALPP, DEPTOR, MT1F]” value is on record as “up-regulated”. For the same compound, in series [5], the “apoptotic markers [ICAM5, WNK4, ALPP, LTRC26, SHBG, MT1X]” value is “up-regulated”. Besides, the “proliferation signaling markers [FOXj1, SPP1, C3]” value in series [5] is on record as “down-regulated”. In addition, in the series with MiaPaCa-2 cells (3 μg, 7 μg, 10 μg, and 12 μg, 24, 48, and 72 hours, FIG. 127), the colony formation entry is given as “significantly disrupted colony formation, particularly at the higher levels of use”. The solubility entry in [6] is on record as “increased the solubility thereof”.
For `COc1ccc2c3c([nH]c2c1)C(CC(CC1=NCCc2c1[nH]c1cc(OC)ccc21)c1cccc(Oc2ccccc2)c1)=NCC3` [compound 594, diharmaline 3-phenoxybenzaldehyde], the IC50 in the series with DOHH-2 cells (Example 24, read-out: Mean) was found to be 2.64 µg/mL; in the series with DOHH-2 cells (Example 24, read-out: Trial A), 2.58 µg/mL; in the series with DOHH-2 cells (Example 24, read-out: Trial B) it was 2.71 µg/mL; in the series with HCC70 cells (Example 24, read-out: Mean), 6.87 µg/mL; in the series with HCC70 cells (Example 24, read-out: Trial A), 6.15 µg/mL; with HCC70 cells (Example 24, read-out: Trial B), 7.59 µg/mL. Further, the IC50 stood at 3.29 µg/mL with HEC-1a cells (Example 24, Endometrial, read-out: Mean); 3.15 µg/mL in the series with HEC-1a cells (Example 24, Endometrial, read-out: Trial A); 3.42 µg/mL in the series with HEC-1a cells (Example 24, Endometrial, read-out: Trial B); 2.79 µg/mL in the series with MDA-MB-468 cells (Example 24, read-out: Mean); 2.9 µg/mL in the series with MDA-MB-468 cells (Example 24, read-out: Trial A); 2.68 µg/mL in the series on MDA-MB-468 cells (Example 24, read-out: Trial B). Further, the IC50 in the series on MIA PaCa-2 cells (Example 24, read-out: Mean) was found to be 3.49 µg/mL; in the series on MIA PaCa-2 cells (Example 24, read-out: Trial A) it was 3.81 µg/mL; with MIA PaCa-2 cells (Example 24, read-out: Trial B), 3.17 µg/mL; in the series on MM.1s cells (Example 24, MM.1S, human myeloma, read-out: Mean), 2.57 µg/mL; in the series on MM.1s cells (Example 24, MM.1S, human myeloma, read-out: Trial A), 2.48 µg/mL; in the series with MM.1s cells (Example 24, MM.1S, human myeloma, read-out: Trial B) it was 2.66 µg/mL. Besides, the IC50 with SiHA cells (Example 24, Squamous, read-out: Mean) came to 8.73 µg/mL; with SiHA cells (Example 24, Squamous, read-out: Trial A) it was 8.56 µg/mL; in the series with SiHA cells (Example 24, Squamous, read-out: Trial B), 8.89 µg/mL.
